Test results: patent publication US20070066595A1, “Selective estrogen receptor modulators” (priority 2004, published 2007)
pIC50: −log10 of the molar value. Where two headings read alike, the source gives them in different places.

Legend:
[1] = system: immature (3 week old) female rats, estrogen-induced uterine weight; assay: 3-Day Rat Uterus Antagonist Assay; format: in vivo; conditions: 3 days, with E2 0.1 mg/kg; for inhibition of the estrogen-induced response: 1.0 mg/kg oral, uterine weight/body weight ratio
From the text: 3-Day Rat Uterus Antagonist Assay: This model for uterine antagonism utilizes immature (3 week old) female rats that are highly sensitive to estrogenic stimulation of the uterus given that their circulating estrogen levels are prepubertal. The uteri from immature rats are fully responsive to exogenous estrogen, yet are quiescent in the absence of exogenous estrogen. Administration of exogenous estrogen to immature rats produces a reliable elevation of uterine weight, which can be used to study uterine antagonist effects. The rats are treated with both estradiol and 4 different concentrations of a compound of the present invention for 3 days and then uterine wet weights are measured.
Nineteen to twenty-one day old (or 45-50 g) female rats are orally treated with E2 (0.1 mg/kg, a maximal stimulatory estrogenic stimulus for reliably increasing uterine weight) and 10, 1.0, 0.1 and 0.01 mg/kg test compound for 3 days, 6 rats per group. Test compounds are dissolved in 20% β-hydroxycyclodextrin and administered by oral gavage in a volume of 0.2 mL daily (15 min. prior to the ethynyl estradiol gavage). A vehicle control, E2 alone and E2+raloxifene are also done as controls. The animals are fasted overnight following the final dose. On the following morning, the animals are weighed, then euthanized (by carbon dioxide asphyxiation) and the uteri rapidly collected (via a mid-line ventral incision) and weighed.
Uterine weight/body weight ratios (UWR) are calculated for each animal. The percent inhibition of the estrogen-induced response is then calculated by the following formula: percent inhibition=100×(UWRestrogen−UWRtest compound/UWRestrogen−UWRcontrol). ED50 values are derived from a semi-log regression analysis of the linear aspect of the dose response curve. Both the UWR data and the percent inhibition data are statistically analyzed by one way analysis of variance (ANOVA) with post-hoc testing by Fisher's PLSD when indicated by a p<0.05. Statistical analyses are performed using the Statview® 4.0 software package.

[2] = system: Ishikawa human endometrial tumor cells; assay: Ishikawa Cell Proliferation Assay (alkaline phosphatase readout; agonist and antagonist modes); format: cell-based
Description: Ishikawa Cell Proliferation Assay: This assay measures cell proliferation (using an alkaline phosphatase readout) in both an agonist mode in the presence of a compound of the present invention alone, and in an antagonist mode in which the ability of a compound of the present invention to block estradiol stimulation of growth is measured.
Ishikawa human endometrial tumor cells are maintained in MEM (minimum essential medium, with Earle's salts and L-Glutamine, Gibco BRL, Gaithersburg, Md.), supplemented with 10% fetal bovine serum (FBS) (V/V), (Gibco BRL). One day prior to assay, growth media is changed to assay medium, DMEM/F-12 (3:1) (Dulbecco's Modified Eagle Medium: Nutrient Mixture F-12, 3:1 Mixture, phenol red-free, Gibco BRL) supplemented with 5% dextran coated charcoal stripped fetal bovine serum (DCC-FBS) (Hyclone, Logen, Utah), L-Glutamine (2 mM), MEM sodium pyruvate (1 mM), HEPES (N-[2-hydroxyethyl]piperazine-N′-[2-ethanesulfonic acid]2 mM) all from Gibco BRL). After an overnight incubation, Ishikawa cells are rinsed with Dulbecco's Phosphate Buffered Saline (1×) (D-PBS) without Ca^+2 and Mg^+2 (Gibco BRL), and trypsinized by a 3 minute incubation with 0.25% Trypsin/EDTA, phenol red-free (Gibco BRL). Cells are resuspended in assay medium and adjusted to 250,000 cells/mL. Approximately 25,000 cells in a 100 ul media are added to flat-bottom 96 wells microculture plates (Costar 3596) and incubated at 37° C. in a 5% CO2 humidified incubator for 24 hours. […]
For the antagonist mode, plates receive 25 μl/well of 6 nM E2 (β-Estradiol, Sigma, St. Louis, Mo.) followed by 25 μl/well of a diluted compound of the present invention (at 6× the final concentrations). […] After a 20-minute incubation, plates are read on a spectophotometer at 405 nm.
The data is fitted to a linear interpolation to derive EC50 (for agonist mode) or IC50 (for antagonist mode) values. For the antagonist mode, a % efficacy for each compound is calculated versus E2 (1 nM) alone. For the agonist mode, a % efficacy for each compound is calculated versus the response to tamoxifen.

[3] = system: mature F344 female rats, serum LH and estradiol; assay: 10-Day Rat Hormone (Ovarian Stimulation) Screen; format: in vivo; conditions: oral gavage 10 days; serum about 2 hours after 10th dose; RIA
Description: 10-Day Rat Hormone (Ovarian Stimulation) Screen: An initial, first screen for ovarian toxicity is conducted using a 10-day rat hormone study to measure estradiol and luteinizing hormone levels after compound administration. This screen is conducted by administering compound by oral gavage for 10 days to mature (9-10 week old) F344 female rats. Trunk blood is collected by rapid decapitation for evaluation of LH and estradiol levels approximately 2 hours after the 10th dose. Serum, obtained by centrifugation, is removed and stored frozen below −60° C. until assayed. Serum levels of LH and estradiol are measured using radioimmunoassay (RIA) methods.
Rat LH primary antibody and reference preparations (rat LH:RP-3) are obtained from Dr. A. F. Parlow, Director, Pituitary Hormones and Antisera Center, Harbor-UCLA Medical Center, Torrance, Calif. The LH assay upper limits of detection are 30 ng/mL and the lower limits of detection are 0.1 ng/mL for the 100 μl samples.
E2 Clinical Assays. DiaSorin s.r.l., Saluggia (Vercelli), Italy. The upper limit of detection is 1000 pg/mL and the lower limit of detection is 5 pg/mL.

Cl.O=S1(=O)CCC(c2ccc3cc(O)ccc3c2Oc2ccc(OCCN3CCCCC3)cc2)CC1 [Example 10, 6-(1,1-Dioxo-hexahydro-1λ^6-thiopyran-4-yl)-5-[4-(2-piperidin-1-yl-ethoxy)-phenoxy]-naphthalen-2-ol Hydrochloride]
inhibition of the estrogen-induced response [1]: inhibit the estrogen-induced response

Cl.O=S1(=O)CC=C(c2ccc3cc(O)ccc3c2Oc2ccc(OCCN3CCCCC3)cc2)CC1 [Example 9, 6-(1,1-Dioxo-1,2,3,6-tetrahydro-1λ^6-thiopyran-4-yl)-5-[4-(2-piperidin-1-yl-ethoxy)-phenoxy]-naphthalen-2-ol Hydrochloride]
Emax ([2]; agonist mode, versus the response to tamoxifen, read-out: relative % efficacy): 19%
pIC50 ([2]; antagonist mode, block of estradiol stimulation): 8.14
Emax ([2]; antagonist mode, versus E2 (1 nM) alone, read-out: % efficacy (inhibition of the 1 nM estradiol response)): 97.9%
inhibition of the estrogen-induced response [1]: inhibit the estrogen-induced response
% antagonism ([1]; oral): 72.6%
ED50 ([1]; oral): 0.17 mpk

CS(=O)(=O)C1CCC(c2ccc3cc(O)ccc3c2Oc2ccc(OCCN3CCCCC3)cc2)CC1.Cl (stereo not drawn) [Example 3, 6-cis-and-trans-(4-Methanesulfonyl-cyclohexyl)-5-[4-(2-piperidin-1-yl-ethoxy)-phenoxy]-naphthalen-2-ol Hydrochloride]
inhibition of the estrogen-induced response [1]: inhibit the estrogen-induced response

CS(=O)(=O)C1CC=C(c2ccc3cc(O)ccc3c2Oc2ccc(OCCN3CCCCC3)cc2)CC1.Cl (racemic) [Example 2, (+/−)-6-(4-Methanesulfonyl-cyclohex-1-enyl)-5-[4-(2-piperidin-1-yl-ethoxy)-phenoxy]-naphthalen-2-ol Hydrochloride]
inhibition of the estrogen-induced response [1]: inhibit the estrogen-induced response
circulating LH levels [3]: did not significantly elevate
circulating estradiol levels [3]: did not significantly elevate
